Like-named read-outs stand apart in the source and are kept apart here.
How the values were obtained:
[1] = in vivo; cited from earlier work
[2] = tested on: progesterone receptor; settings: cited from earlier work
[3] = tested on: MDA-MB-231 cell line; settings: cited from earlier work
[4] = tested on: estrogen receptor; settings: cited from earlier work
[5] = tested on: uterus; settings: weanling female C57BL/6 mice; cited from earlier work
[6] = tested on: 34-kDa protein; format: cell-based, human; settings: for Secreted 34-kDa protein / Protein Secretion, 34-kDa: 2880 min
Experimental: (§1) On day 0, the media was removed and the cells were rinsed two times with PBS. […] The cells were allowed to incubate for 48 h. […] After 6 h, the media was removed, 10 μl was counted and the remaining media was used for analysis of secreted proteins.
(§2) The secreted proteins were analyzed by sodium dodecyl sulfate (SDS) polyacrylamide gel electrophoresis; 30 μl of the media was mixed with an equal volume of buffer containing SDS, β-mercaptoethanol, glycerol, Tris and bromophenol blue. The samples were heated for 2 minutes in a boiling water bath and 50 μl of each sample was loaded onto a 1.5 mm thick 12% acrylamide slab gel (containing 0.075% bisacrylamide) with a 3% stacking gel (containing 0.15% bisacrylamide). The gels were run at […] overnight and processed for fluorography (using Enhance: Dupont) and exposed to Kodak X-OMAT film for 10 days at -80° C. The molecular weights of the proteins were estimated by their mobility relative to a set of standard proteins with known molecular weights.
(§3) The incorporation of ^35 S-methionine into the 34-kDa, 52-kDa and 160-kDa proteins was estimated by scanning the films using a Zeineh Soft Laser Scanning Densitometer (model SLR-20/10) from Biomedical Instruments,Inc. The percentage of the area of the scans due to the particular protein was then compared between the experimental and control samples and the results are presented as means ± SD for at least three samples per treatment group.

[7] = tested on: 52-kDa protein; format: cell-based, human
Experimental: as §1, §2, §3

[8] = tested on: 160-kDa protein; format: cell-based, human; settings: for Secreted 160-kDa protein / Protein Secretion, 160-kDa: 2880 min
Experimental: as §1, §2, §3

[9] = tested on: uterus; settings: cited from earlier work
[10] = tested on: MCF-7 human breast cancer cells; settings: cited from earlier work
[11] = tested on: tissue plasminogen activator; settings: MCF-7 human breast cancer cells; cited from earlier work
[12] = tested on: mammary and uterine tumors; settings: long term feeding studies; cited from earlier work
[13] = tested on: AHH and EROD induction; test: TCDD antagonism / Ah receptor agonist activity (AHH and EROD induction)
[14] = tested on: uterus; test: Uterine wet weights in mice (summary); format: in vivo; settings: in comparison to control
[15] = Toxicity; settings: in vivo
[16] = tested on: MCF-7 human breast cancer cells; test: Growth of MCF-7 human breast cancer cells; format: cell-based; settings: MCDF
[17] = tested on: female rat uterus; test: Antiestrogenic effect on uterine wet weight, immature female Sprague-Dawley rats (Example 8); format: in vivo; settings: run A
[18] = tested on: progesterone receptor (PR); test: Uterine progesterone receptor levels, hydroxyapatite assay (Example 8); format: in vivo, female Sprague-Dawley rats; settings: run A
Experimental: (§4) The animals were terminated by cervical dislocation. Livers were perfused with ice-cold TEDG buffer (10 mM Tris-HCl, 1.5 mM EDTA-4Na, 1 mM dithiothreitol, 10% glycerol (v/v), pH 7.4). Following perfusion in situ, livers were removed, weighed, and homogenized in ice-cold TEDG buffer. Uteri were also removed, weighed, and homogenized in ice-cold buffer. The homogenates were then centrifuged at 800×g ([…]) for 15 minutes and the nuclear pellets were stored at -80° C. The supernatants were further centrifuged at 180,000× g for 1.5 hours. The cytosolic supernatant was also stored at -80° C. Estrogen and progesterone receptor levels were determined within 7 days.
(§5) Estrogen (ER) and progesterone (PR) receptor levels were determined by the hydroxyapatite assay as described by Clark et al. (J. Steroid Biochem. 16:323-328, 1982) and incorporated herein by reference. […] Following the incubations, samples were counted and specific binding was calculated by subtraction of nonspecific from total binding. Assuming one steroid molecule binds to one estrogen/progesterone receptor, the number of moles of receptor can be calculated given the specific activity of the radioligand. The data presented in Tables 1 through 6 are means ± SD using at least four animals per treatment group. Significant differences were determined by analysis of variance.

[19] = tested on: Ah receptor; test: Binding affinity for the Ah receptor
[20] = tested on: uterus; test: Uterine wet weight / uterotrophic effects (literature, summary); format: in vivo, rat; settings: rats, in comparison to control
[21] = tested on: estrogen receptor (ER); test: Uterine estrogen receptor levels, hydroxyapatite assay (Example 8); format: in vivo, female Sprague-Dawley rats; settings: run A
Experimental: A second group of animals was similarly treated with corn oil, TCDD, MCDF, or TCDD plus MCDF, all administered in corn oil at 10 ml/kg and terminated 72 hours later.
as §4, §5

[22] = tested on: uterus; settings: cited from earlier work; remark: listed apart in the source
[23] = tested on: 52-kDa protein; settings: Biegel and Safe, 1990; cited from earlier work
[24] = tested on: EGF receptor; settings: cited from earlier work
[25] = tested on: 34-kDa protein; settings: Biegel and Safe, 1990; cited from earlier work
[26] = tested on: 160-kDa protein; settings: Biegel and Safe, 1990; cited from earlier work
[27] = 17β-estradiol (1 nM) + TCDD 0.0001 nM
[28] = 17β-estradiol (1 nM) + TCDD 0.001 nM
[29] = 17β-estradiol (1 nM) + TCDD 0.01 nM
[30] = 17β-estradiol (1 nM) + TCDD 0.1 nM
[31] = 150 μmol/kg + E-2 (2 × 10 μg/rat)
[32] = compound alone, 150 μmol/kg (17β-estradiol: 2 × 10 μg/rat)

Q: Which results are given for `Clc1cc2c(cc1Cl)Oc1cc(Cl)c(Cl)cc1O2` [TCDD, 2,3,7,8-tetrachloridibenzo-p-dioxin]?
A: hepatocarcinogenicity [1]: so hepatocarcinogenic; constitutive and 17β-estradiol induced uterine and hepatic progesterone receptor levels ([2]; female rat): decreased; secretion of the 34-, 52- and 160-kDa proteins ([3]; TCDD plus 17β-estradiol): did not affect; secretion of the 34-, 52- and 160-kDa proteins ([3]; compound alone): did not affect; binding to the estrogen receptor [4]: does not bind; uterine weights [5]: decreased; secretion of the 34-kDa protein ([6]; 10 nM TCDD alone): did not significantly affect; Secreted 34-kDa protein [6, 27]: 255 ± 37.8% of the values for control; Secreted 34-kDa protein [6, 28]: 151 ± 20.7% of the values for control; Secreted 34-kDa protein [6, 29]: 94.2 ± 24.0% of the values for control; Secreted 34-kDa protein [6, 30]: 94.9 ± 11.4% of the values for control; Secreted 34-kDa protein ([6]; TCDD alone, 0.0001 nM): 86.5 ± 8.56% of the values for control; Secreted 34-kDa protein ([6]; TCDD alone, 0.001 nM): 95.2 ± 12.8% of the values for control; Secreted 34-kDa protein ([6]; TCDD alone, 0.01 nM): 85.7 ± 11.9% of the values for control; Secreted 34-kDa protein ([6]; TCDD alone, 0.1 nM): 94.5 ± 133% of the values for control; hormone-induced secretion of the 34-kDa protein ([6]; TCDD plus 17β-estradiol): significantly inhibited; secretion of the 52-kDa protein ([7]; 10 nM TCDD alone): did not significantly affect; hormone-induced secretion of the 52-kDa protein ([7]; TCDD plus 17β-estradiol): significantly inhibited; secretion of the 160-kDa protein ([8]; 10 nM TCDD alone): did not significantly affect; Secreted 160-kDa protein [8, 27]: 321 ± 29.0% of the values for control; Secreted 160-kDa protein [8, 28]: 167 ± 31.3% of the values for control; Secreted 160-kDa protein [8, 29]: 127 ± 21.0% of the values for control; Secreted 160-kDa protein [8, 30]: 94.3 ± 5.23% of the values for control; Secreted 160-kDa protein ([8]; TCDD alone, 0.0001 nM): 97.4 ± 2.73% of the values for control; Secreted 160-kDa protein ([8]; TCDD alone, 0.001 nM): 94.3 ± 3.00% of the values for control; Secreted 160-kDa protein ([8]; TCDD alone, 0.01 nM): 90.4 ± 17.2% of the values for control; Secreted 160-kDa protein ([8]; TCDD alone, 0.1 nM): 92.8 ± 5.16% of the values for control; hormone-induced secretion of the 160-kDa protein ([8]; TCDD plus 17β-estradiol): significantly inhibited; estrogenic effects of 17β-estradiol on uterine weights ([9]; TCDD with 17β-estradiol): partially blocked; uterine weights ([9]; female Long Evans rats): decreased; 17β-estradiol-induced growth of MCF-7 human breast cancer cells ([10]; TCDD): inhibits; estrogen mediated excretion of tissue plasminogen activator activity [11]: suppressed; spontaneous development of mammary and uterine tumors [12]: significantly decreased

Q: Which results are given for `Cc1cc(Cl)cc2c1oc1cc(Cl)cc(Cl)c12` [MCDF, 6-methyl 1,3,8-trichlorodibenzofuran]?
A: agonist for Ah receptor mediated response [13]: poor agonist; uterine wet weights [14]: decreases; upregulation of uterine nuclear and cytosolic progesterone receptor levels by 17β-estradiol ([2]; rat, in vivo): inhibits; uterine and hepatic cytosolic and nuclear progesterone receptor levels ([2]; rat, in vivo): dose response decrease; toxicity [15]: low toxicity; toxicity of amounts giving antiestrogenic effects [15]: nontoxic; 17β-estradiol-induced growth of MCF-7 cells [16]: inhibits; Uterine Wet Weight [17, 31]: 0.194 ± 0.023 % body wt; Uterine Wet Weight [17, 32]: 0.104 ± 0.004 % body wt; Progesterone Receptor Levels, Cytosolic [18, 31]: 1203 ± 110 fmol/mg protein; Progesterone Receptor Levels, Nuclear [18, 31]: 435 ± 91 fmol/mg protein; Progesterone Receptor Levels, Cytosolic [18, 32]: 915 ± 63 fmol/mg protein; Progesterone Receptor Levels, Nuclear [18, 32]: 312 ± 50 fmol/mg protein; Ah receptor binding activity [19]: relatively high; uterine wet weights [20]: decreases; Estrogen Receptor Levels, Cytosolic [21, 31]: 78.9 ± 79.1 fmol/mg protein; Estrogen Receptor Levels, Nuclear [21, 31]: 43.3 ± 73.4 fmol/mg protein; Estrogen Receptor Levels, Cytosolic [21, 32]: 55.1 ± 0.9 fmol/mg protein; Estrogen Receptor Levels, Nuclear [21, 32]: 49.3 ± 10.2 fmol/mg protein; 17β-estradiol-induced increases in rat uterine wet weight [22]: active as an antiestrogen; uterotrophic effects of 17β-estradiol ([22]; rat, in vivo): inhibits; Protein Secretion, 34-kDa ([6]; 17β-estradiol + MCDF): 78 % of Control; 17β-estradiol-induced secretion of the 34-kDa protein ([6]; MCDF): inhibits; Protein Secretion, 34-kDa ([6]; MCDF alone (100 nM)): 80 % of Control; 17β-estradiol-induced secretion of the 52-kDa protein ([7]; MCDF): inhibits; Protein Secretion, 160-kDa ([8]; 17β-estradiol + MCDF): 76 % of Control; 17β-estradiol-induced secretion of the 160-kDa protein ([8]; MCDF): inhibits; Protein Secretion, 160-kDa ([8]; MCDF alone (100 nM)): 72 % of Control; 17β-estradiol-induced secretion of the 52-kDa protein [23]: inhibits; 17β-estradiol-induced increased EGF receptor binding and mRNA levels [24]: inhibits; 17β-estradiol-induced secretion of the 34-kDa protein [25]: inhibits; 17β-estradiol-induced growth of MCF-7 cells ([10]; Biegel, 1990): inhibits; 17β-estradiol-induced secretion of the 160-kDa protein [26]: inhibits

From US5516790A, “Synthesis and application of alkyl-substituted dibenzofurans as antitumorigenic agents” (Texas A&M University System Technology Licensing Office, priority 1994, dated 1996)
